test system: Human immunodeficiency virus 1; test: Viral spread inhibitory concentration against HIV-1 strain Q-60C in MT-4 human T-lymphoid cells; assay type: functional; conditions: Human immunodeficiency virus 1, T-lymphoid; read-out: CIC95

| SMILES | IC95 [nM] |
| --- | --- |
| O=C(N[C@H]1c2ccccc2OC[C@H]1O)[C@H](Cc1cccnc1)C[C@H](O)CN1CCN(Cc2ccn(-c3ccc(Cl)cc3)c2)C[C@H]1C(=O)NCC(F)(F)F | ≤ 8 |
| O=C(N[C@H]1c2ccccc2OC[C@H]1O)[C@H](Cc1cccnc1)C[C@H](O)CN1CCN(Cc2ccn(-c3ccc(F)cc3)c2)C[C@H]1C(=O)NCC(F)(F)F | 15 |
| O=C(N[C@H]1c2ccccc2OC[C@H]1O)[C@H](Cc1cccnc1)C[C@H](O)CN1CCN(Cc2ccn(-c3cc(Cl)c(Cl)c(Cl)c3)c2)C[C@H]1C(=O)NCC(F)(F)F | ≤ 8 |
| O=C(N[C@H]1c2ccccc2OC[C@H]1O)[C@H](Cc1cccnc1)C[C@H](O)CN1CCN(Cc2ccn(-c3cccc(C(F)(F)F)c3)c2)C[C@H]1C(=O)NCC(F)(F)F | ≤ 8 |
| O=C(N[C@H]1c2ccccc2OC[C@H]1O)[C@H](Cc1cccnc1)C[C@H](O)CN1CCN(Cc2ccn(-c3ccccc3F)c2)C[C@H]1C(=O)NCC(F)(F)F | 31 |
| O=C(N[C@H]1c2ccccc2OC[C@H]1O)[C@H](Cc1cccnc1)C[C@H](O)CN1CCN(Cc2ccn(-c3cccc(Cl)c3)c2)C[C@H]1C(=O)NCC(F)(F)F | ≤ 8 |
| N#Cc1cccc(-n2ccc(CN3CCN(C[C@@H](O)C[C@@H](Cc4cccnc4)C(=O)N[C@H]4c5ccccc5OC[C@H]4O)[C@H](C(=O)NCC(F)(F)F)C3)c2)c1 | ≤ 31 |
| O=C(N[C@H]1c2ccccc2OC[C@H]1O)[C@H](Cc1cccnc1)C[C@H](O)CN1CCN(Cc2ccn(-c3ccc(F)c(F)c3F)c2)C[C@H]1C(=O)NCC(F)(F)F | ≤ 8 |
| N#Cc1ccc(-n2ccc(CN3CCN(C[C@@H](O)C[C@@H](Cc4cccnc4)C(=O)N[C@H]4c5ccccc5OC[C@H]4O)[C@H](C(=O)NCC(F)(F)F)C3)c2)cc1 | 31 |
| O=C(N[C@H]1c2ccccc2OC[C@H]1O)[C@H](Cc1cccnc1)C[C@H](O)CN1CCN(Cc2ccn(-c3ccc(C(F)(F)F)cc3)c2)C[C@H]1C(=O)NCC(F)(F)F | ≤ 8 |

test system: not listed separately; test: Area under curve determined in dog at a dose of 10 mg/kg by oral administration along with […] (10 mg/kg); conditions: in vivo

| SMILES | AUC [µM·h] |
| --- | --- |
| O=C(N[C@H]1c2ccccc2OC[C@H]1O)[C@H](Cc1cccnc1)C[C@H](O)CN1CCN(Cc2ccn(-c3ccc(F)c(F)c3F)c2)C[C@H]1C(=O)NCC(F)(F)F | 26.6 |

test system: not listed separately; test: Cmax value determined in dog at a dose of 10 mg/kg by oral administration; assay type: ADME, organism-based, Canis lupus familiaris; design: dose 10 mg/kg, route oral; conditions: in vivo

| SMILES | Cmax [nM] |
| --- | --- |
| O=C(N[C@H]1c2ccccc2OC[C@H]1O)[C@H](Cc1cccnc1)C[C@H](O)CN1CCN(Cc2ccn(-c3ccc(F)c(F)c3F)c2)C[C@H]1C(=O)NCC(F)(F)F | 1900 |

test system: MT4; test: Viral spread inhibitory concentration against HIV-1 strain V-18C in MT-4 human T-lymphoid cells; assay type: functional; conditions: read-out: CIC95

| SMILES | IC95 [nM] |
| --- | --- |
| O=C(N[C@H]1c2ccccc2OC[C@H]1O)[C@H](Cc1cccnc1)C[C@H](O)CN1CCN(Cc2ccn(-c3ccc(Cl)cc3)c2)C[C@H]1C(=O)NCC(F)(F)F | ≤ 8 |
| O=C(N[C@H]1c2ccccc2OC[C@H]1O)[C@H](Cc1cccnc1)C[C@H](O)CN1CCN(Cc2ccn(-c3cc(Cl)c(Cl)c(Cl)c3)c2)C[C@H]1C(=O)NCC(F)(F)F | 15 |
| O=C(N[C@H]1c2ccccc2OC[C@H]1O)[C@H](Cc1cccnc1)C[C@H](O)CN1CCN(Cc2ccn(-c3cccc(Cl)c3)c2)C[C@H]1C(=O)NCC(F)(F)F | ≤ 8 |
| O=C(N[C@H]1c2ccccc2OC[C@H]1O)[C@H](Cc1cccnc1)C[C@H](O)CN1CCN(Cc2ccn(-c3ccc(F)c(F)c3F)c2)C[C@H]1C(=O)NCC(F)(F)F | ≤ 8 |

test system: Human immunodeficiency virus 1; test: Viral spread inhibitory concentration against HIV-1 strain NL4-3 in MT-4 human T-lymphoid cells; assay type: functional; conditions: Human immunodeficiency virus 1, T-lymphoid; read-out: CIC95

| SMILES | IC95 [nM] |
| --- | --- |
| O=C(N[C@H]1c2ccccc2OC[C@H]1O)[C@H](Cc1cccnc1)C[C@H](O)CN1CCN(Cc2ccn(-c3ccc(Cl)cc3)c2)C[C@H]1C(=O)NCC(F)(F)F | ≤ 8 |
| O=C(N[C@H]1c2ccccc2OC[C@H]1O)[C@H](Cc1cccnc1)C[C@H](O)CN1CCN(Cc2ccn(-c3ccc(F)cc3)c2)C[C@H]1C(=O)NCC(F)(F)F | 15 |
| O=C(N[C@H]1c2ccccc2OC[C@H]1O)[C@H](Cc1cccnc1)C[C@H](O)CN1CCN(Cc2ccn(-c3cc(Cl)c(Cl)c(Cl)c3)c2)C[C@H]1C(=O)NCC(F)(F)F | ≤ 8 |
| O=C(N[C@H]1c2ccccc2OC[C@H]1O)[C@H](Cc1cccnc1)C[C@H](O)CN1CCN(Cc2ccn(-c3cccc(C(F)(F)F)c3)c2)C[C@H]1C(=O)NCC(F)(F)F | 15 |
| O=C(N[C@H]1c2ccccc2OC[C@H]1O)[C@H](Cc1cccnc1)C[C@H](O)CN1CCN(Cc2ccn(-c3ccccc3F)c2)C[C@H]1C(=O)NCC(F)(F)F | 15 |
| O=C(N[C@H]1c2ccccc2OC[C@H]1O)[C@H](Cc1cccnc1)C[C@H](O)CN1CCN(Cc2ccn(-c3cccc(Cl)c3)c2)C[C@H]1C(=O)NCC(F)(F)F | ≤ 8 |
| N#Cc1cccc(-n2ccc(CN3CCN(C[C@@H](O)C[C@@H](Cc4cccnc4)C(=O)N[C@H]4c5ccccc5OC[C@H]4O)[C@H](C(=O)NCC(F)(F)F)C3)c2)c1 | 62 |
| O=C(N[C@H]1c2ccccc2OC[C@H]1O)[C@H](Cc1cccnc1)C[C@H](O)CN1CCN(Cc2ccn(-c3ccc(F)c(F)c3F)c2)C[C@H]1C(=O)NCC(F)(F)F | ≤ 8 |
| N#Cc1ccc(-n2ccc(CN3CCN(C[C@@H](O)C[C@@H](Cc4cccnc4)C(=O)N[C@H]4c5ccccc5OC[C@H]4O)[C@H](C(=O)NCC(F)(F)F)C3)c2)cc1 | 62 |
| O=C(N[C@H]1c2ccccc2OC[C@H]1O)[C@H](Cc1cccnc1)C[C@H](O)CN1CCN(Cc2ccn(-c3ccc(C(F)(F)F)cc3)c2)C[C@H]1C(=O)NCC(F)(F)F | 15 |

test system: not listed separately; test: Area under curve determined in dog at a dose of 10 mg/kg by oral administration; assay type: ADME, organism-based, Canis lupus familiaris; design: dose 10 mg/kg, route oral; conditions: in vivo

| SMILES | AUC [µM·h] |
| --- | --- |
| O=C(N[C@H]1c2ccccc2OC[C@H]1O)[C@H](Cc1cccnc1)C[C@H](O)CN1CCN(Cc2ccn(-c3ccc(F)c(F)c3F)c2)C[C@H]1C(=O)NCC(F)(F)F | 4.4 |

test system: not listed separately; test: Plasma clearance in human liver microsomes; assay type: ADME, Microsome; conditions: not given

| SMILES | CLint scaled [mL/min/kg] |
| --- | --- |
| O=C(N[C@H]1c2ccccc2OC[C@H]1O)[C@H](Cc1cccnc1)C[C@H](O)CN1CCN(Cc2ccn(-c3ccc(Cl)cc3)c2)C[C@H]1C(=O)NCC(F)(F)F | 229 |
| O=C(N[C@H]1c2ccccc2OC[C@H]1O)[C@H](Cc1cccnc1)C[C@H](O)CN1CCN(Cc2ccn(-c3cccc(Cl)c3)c2)C[C@H]1C(=O)NCC(F)(F)F | 307 |
| O=C(N[C@H]1c2ccccc2OC[C@H]1O)[C@H](Cc1cccnc1)C[C@H](O)CN1CCN(Cc2ccn(-c3ccc(F)c(F)c3F)c2)C[C@H]1C(=O)NCC(F)(F)F | 218 |

target: Cytochrome P450 3A4 (Homo sapiens, UniProt P08684); test: In vitro inhibition of Cytochrome P450 3A4; assay type: ADME; conditions: not given
Sequence (P08684 whole entry): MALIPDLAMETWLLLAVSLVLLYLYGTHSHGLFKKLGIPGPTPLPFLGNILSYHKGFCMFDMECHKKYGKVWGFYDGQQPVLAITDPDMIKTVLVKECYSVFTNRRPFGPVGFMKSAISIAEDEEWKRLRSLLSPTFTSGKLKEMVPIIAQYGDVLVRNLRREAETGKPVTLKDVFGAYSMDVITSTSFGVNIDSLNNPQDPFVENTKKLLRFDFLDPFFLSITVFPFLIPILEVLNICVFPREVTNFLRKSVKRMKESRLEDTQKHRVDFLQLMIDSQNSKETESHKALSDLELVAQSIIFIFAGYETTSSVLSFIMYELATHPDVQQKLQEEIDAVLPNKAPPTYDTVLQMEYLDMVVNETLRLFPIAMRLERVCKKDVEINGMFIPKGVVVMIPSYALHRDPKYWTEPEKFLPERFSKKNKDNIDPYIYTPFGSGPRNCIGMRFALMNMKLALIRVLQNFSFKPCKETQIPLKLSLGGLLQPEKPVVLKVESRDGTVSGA

| SMILES | IC50 [nM] |
| --- | --- |
| O=C(N[C@H]1c2ccccc2OC[C@H]1O)[C@H](Cc1cccnc1)C[C@H](O)CN1CCN(Cc2ccn(-c3ccc(Cl)cc3)c2)C[C@H]1C(=O)NCC(F)(F)F | 50 |
| O=C(N[C@H]1c2ccccc2OC[C@H]1O)[C@H](Cc1cccnc1)C[C@H](O)CN1CCN(Cc2ccn(-c3cccc(Cl)c3)c2)C[C@H]1C(=O)NCC(F)(F)F | 80 |
| O=C(N[C@H]1c2ccccc2OC[C@H]1O)[C@H](Cc1cccnc1)C[C@H](O)CN1CCN(Cc2ccn(-c3ccc(F)c(F)c3F)c2)C[C@H]1C(=O)NCC(F)(F)F | 50 |

test system: Human immunodeficiency virus 1; test: Viral spread inhibitory concentration against HIV-1 strain K-60C in MT-4 human T-lymphoid cells; assay type: functional; conditions: Human immunodeficiency virus 1, T-lymphoid; read-out: CIC95

| SMILES | IC95 [nM] |
| --- | --- |
| O=C(N[C@H]1c2ccccc2OC[C@H]1O)[C@H](Cc1cccnc1)C[C@H](O)CN1CCN(Cc2ccn(-c3ccc(Cl)cc3)c2)C[C@H]1C(=O)NCC(F)(F)F | 15 |
| O=C(N[C@H]1c2ccccc2OC[C@H]1O)[C@H](Cc1cccnc1)C[C@H](O)CN1CCN(Cc2ccn(-c3ccc(F)cc3)c2)C[C@H]1C(=O)NCC(F)(F)F | 15 |
| O=C(N[C@H]1c2ccccc2OC[C@H]1O)[C@H](Cc1cccnc1)C[C@H](O)CN1CCN(Cc2ccn(-c3cc(Cl)c(Cl)c(Cl)c3)c2)C[C@H]1C(=O)NCC(F)(F)F | 31 |
| O=C(N[C@H]1c2ccccc2OC[C@H]1O)[C@H](Cc1cccnc1)C[C@H](O)CN1CCN(Cc2ccn(-c3cccc(C(F)(F)F)c3)c2)C[C@H]1C(=O)NCC(F)(F)F | 31 |
| O=C(N[C@H]1c2ccccc2OC[C@H]1O)[C@H](Cc1cccnc1)C[C@H](O)CN1CCN(Cc2ccn(-c3ccccc3F)c2)C[C@H]1C(=O)NCC(F)(F)F | 62 |
| O=C(N[C@H]1c2ccccc2OC[C@H]1O)[C@H](Cc1cccnc1)C[C@H](O)CN1CCN(Cc2ccn(-c3cccc(Cl)c3)c2)C[C@H]1C(=O)NCC(F)(F)F | ≤ 8 |
| N#Cc1cccc(-n2ccc(CN3CCN(C[C@@H](O)C[C@@H](Cc4cccnc4)C(=O)N[C@H]4c5ccccc5OC[C@H]4O)[C@H](C(=O)NCC(F)(F)F)C3)c2)c1 | 62 |
| O=C(N[C@H]1c2ccccc2OC[C@H]1O)[C@H](Cc1cccnc1)C[C@H](O)CN1CCN(Cc2ccn(-c3ccc(F)c(F)c3F)c2)C[C@H]1C(=O)NCC(F)(F)F | 15 |
| N#Cc1ccc(-n2ccc(CN3CCN(C[C@@H](O)C[C@@H](Cc4cccnc4)C(=O)N[C@H]4c5ccccc5OC[C@H]4O)[C@H](C(=O)NCC(F)(F)F)C3)c2)cc1 | 125 |
| O=C(N[C@H]1c2ccccc2OC[C@H]1O)[C@H](Cc1cccnc1)C[C@H](O)CN1CCN(Cc2ccn(-c3ccc(C(F)(F)F)cc3)c2)C[C@H]1C(=O)NCC(F)(F)F | 15 |

target: Human immunodeficiency virus type 1 protease (Human immunodeficiency virus 1, UniProt Q72874); test: In vitro inhibition of HIV-1 protease (NL4-3 strain).; conditions: not given

| SMILES | IC50 [nM] |
| --- | --- |
| O=C(N[C@H]1c2ccccc2OC[C@H]1O)[C@H](Cc1cccnc1)C[C@H](O)CN1CCN(Cc2ccn(-c3ccc(Cl)cc3)c2)C[C@H]1C(=O)NCC(F)(F)F | 0.03 |
| O=C(N[C@H]1c2ccccc2OC[C@H]1O)[C@H](Cc1cccnc1)C[C@H](O)CN1CCN(Cc2ccn(-c3ccc(F)cc3)c2)C[C@H]1C(=O)NCC(F)(F)F | 0.05 |
| O=C(N[C@H]1c2ccccc2OC[C@H]1O)[C@H](Cc1cccnc1)C[C@H](O)CN1CCN(Cc2ccn(-c3cc(Cl)c(Cl)c(Cl)c3)c2)C[C@H]1C(=O)NCC(F)(F)F | 0.02 |
| O=C(N[C@H]1c2ccccc2OC[C@H]1O)[C@H](Cc1cccnc1)C[C@H](O)CN1CCN(Cc2ccn(-c3cccc(C(F)(F)F)c3)c2)C[C@H]1C(=O)NCC(F)(F)F | 0.05 |
| O=C(N[C@H]1c2ccccc2OC[C@H]1O)[C@H](Cc1cccnc1)C[C@H](O)CN1CCN(Cc2ccn(-c3ccccc3F)c2)C[C@H]1C(=O)NCC(F)(F)F | 0.16 |
| O=C(N[C@H]1c2ccccc2OC[C@H]1O)[C@H](Cc1cccnc1)C[C@H](O)CN1CCN(Cc2ccn(-c3cccc(Cl)c3)c2)C[C@H]1C(=O)NCC(F)(F)F | 0.05 |
| N#Cc1cccc(-n2ccc(CN3CCN(C[C@@H](O)C[C@@H](Cc4cccnc4)C(=O)N[C@H]4c5ccccc5OC[C@H]4O)[C@H](C(=O)NCC(F)(F)F)C3)c2)c1 | 0.15 |
| O=C(N[C@H]1c2ccccc2OC[C@H]1O)[C@H](Cc1cccnc1)C[C@H](O)CN1CCN(Cc2ccn(-c3ccc(F)c(F)c3F)c2)C[C@H]1C(=O)NCC(F)(F)F | 0.05 |
| N#Cc1ccc(-n2ccc(CN3CCN(C[C@@H](O)C[C@@H](Cc4cccnc4)C(=O)N[C@H]4c5ccccc5OC[C@H]4O)[C@H](C(=O)NCC(F)(F)F)C3)c2)cc1 | 0.1 |
| O=C(N[C@H]1c2ccccc2OC[C@H]1O)[C@H](Cc1cccnc1)C[C@H](O)CN1CCN(Cc2ccn(-c3ccc(C(F)(F)F)cc3)c2)C[C@H]1C(=O)NCC(F)(F)F | 0.04 |

From ChEMBL document CHEMBL1146635 (Bioorg Med Chem Lett, 2003)
